Test results reported in patent US6465501B2, “Azolidines as β3 adrenergic receptor agonists” (Wyeth, priority 2000, dated 2002).
Counter-ions that a name gives are not always drawn.

SMILES | melting point
CN1C(=O)SC(Nc2ccc(CCNC[C@H](O)COc3ccc(OCc4ccccc4)cc3)cc2)C1=O (stereo partly drawn) (as salt: HBr) [Example 2, 5-{4-[2-({(2 S)-3-[4-(Benzyloxy}phenoxy]-2-hydroxypropyl}amino)ethyl]anilino}-3-methyl-1,3-thiazolidine-2,4-dione] | 165 to 167 °C
O=C1NC(=O)C(Nc2ccc(CCNC[C@H](O)COc3ccc(F)cc3)cc2)S1 (stereo partly drawn) (as salt: salt) (hydrate or solvate) [Example 8, 5-[4-(2-{[(2 S)-3-(4-Fluorophenoxy)-2-hydroxypropyl]amino}ethyl)anilino]-1,3-thiazolidine-2,4-dione] | 55 °C
O=C1NC(=O)C(Nc2ccc(CCNC[C@H](O)COc3ccccc3)cc2)S1 (stereo partly drawn) (as salt: salt) (hydrate or solvate) [Example 9, 5-[4-(2-{[(2 S)-2-Hydroxy-3-phenoxypropyl]amino}ethyl)anilino]-1,3-thiazolidine-2,4-dione] | 55 °C
COc1ccc(OC[C@@H](O)CNCCc2ccc(NC3SC(=O)NC3=O)cc2)cc1 (stereo partly drawn) (as salt: salt) (hydrate or solvate) [Example 10, 5-[4-(2-{[(2 S)-2-Hydroxy-3-(4-methoxyphenoxy)propyl]amino}ethyl)anilino]-1,3-thiazolidine-2,4-dione] | 56 °C
CN(c1ccc(CCNC[C@H](O)COc2ccccc2)cc1)C1SC(=O)NC1=O (stereo partly drawn) (as salt: salt) (hydrate or solvate) [Example 17, 5-[4-(2-{[(2 S)-2-Hydroxy-3-phenoxypropyl]amino}ethyl)(methyl)anilino]-1,3-thiazolidine-2,4-dione.] | 58 °C
CC(Cc1ccc(NC2SC(=O)NC2=O)cc1)NC[C@H](O)c1cccc(Cl)c1 (stereo partly drawn) (as salt: salt) (hydrate or solvate) [Example 18, 5-[4-(2-{[(2 R)-2-(3-Chlorophenyl)-2-hydroxyethyl]amino}propyl)anilino]-1,3-thiazolidine-2,4-dione] | 83 to 85 °C
CN(c1ccc(CCNC[C@H](O)COc2ccc(OCc3ccccc3)cc2)cc1)C1SC(=O)NC1=O (stereo partly drawn) (as salt: salt) [Example 26, 5-[(4-{2-[(2 S)-3-(4-Benzyloxy-phenoxy)-2-hydroxy-propylamino]-ethyl}-phenyl)-methyl-amino]-thiazolidine-2,4-dione] | 51 to 53 °C
O=C1NC(=O)C(Nc2ccc(CCNC[C@H](O)COc3ccc4ccccc4c3)cc2)S1 (stereo partly drawn) (hydrate or solvate) [Example 21, 5-(4-{2-[(2 S)-2-Hydroxy-3-(naphthalen-2-yloxy)-propylamino]-ethyl}-phenylamino)-thiazolidine-2,4-dione] | 90 to 91 °C
O=C1NC(=O)C(Nc2ccc(CCNC[C@H](O)COc3ccc4c(c3)OCO4)cc2)S1 (stereo partly drawn) (hydrate or solvate) [Example 24, 5-(4-{2-[(2 S)-3-(Benzo[1,3]dioxol-5-yloxy)-2-hydroxy-propylamino]-ethyl}-phenylamino)-thiazolidine-2,4-dione] | 65 °C (dec.)
O=C1NC(=O)C(N(Cc2ccc(Br)cc2)c2ccc(CCNC[C@H](O)COc3ccc(O)cc3)cc2)S1 (stereo partly drawn) (hydrate or solvate) [Example 28, 5-[(4-Bromo-benzyl)-(4-{2-[(2 S)-2-hydroxy-3-(4-hydroxy-phenoxy)-propylamino]-ethyl}-phenyl)-amino]-thiazolidine-2,4-dione] | 79 °C (dec.)
O=C1NC(=O)C(N(Cc2ccc(Br)cc2)c2ccc(CCNC[C@H](O)COc3ccccc3)cc2)S1 (stereo partly drawn) (hydrate or solvate) [Example 29, 5-((4-Bromo-benzyl)-{4-[2-((2 S)-2-hydroxy-3-phenoxy-propylamino)-ethyl]-phenyl}-amino)-thiazolidine-2,4-dione] | 52 to 54 °C

Further lines, results first:

melting point | SMILES
65 °C | O=C1NC(=O)C(Nc2ccc(CCNC[C@H](O)COc3cccc(O)c3)cc2)S1 (stereo partly drawn) (as salt: salt) (hydrate or solvate) [Example 12, 5-[4-(2-{[(2 S)-2-Hydroxy-3-(3-hydroxyphenoxy)propyl]amino}ethyl)anilino]-1,3-thiazolidine-2,4-dione]
140 °C | O=C1NC(=O)C(Nc2ccc(CCNC[C@H](O)COc3cccc4[nH]c5ccccc5c34)cc2)S1 (stereo partly drawn) (as salt: salt) (hydrate or solvate) [Example 13, 5-[4-(2-{[(2 S)-3-(9 H-Carbazol-4-yloxy)-2-hydroxypropyl]amino}ethyl)anilino]-1 ,3-thiazolidine-2,4-dione]
130 °C | CS(=O)(=O)Nc1cc([C@H](O)CNCCc2ccc(NC3SC(=O)NC3=O)cc2)ccc1O (stereo partly drawn) (as salt: salt) (hydrate or solvate) [Example 14, N{5-[(1 S)-2-({4-[(2,4-Dioxo-1,3-thiazolidin-5-yl)amino]phenethyl}amino)-1-hydroxyethyl]-2-hydroxyphenyl}methanesulfonamide]
50 °C | O=C1NC(=O)C(Nc2ccc(CCNC[C@H](O)COc3ccc4occc4c3)cc2)S1 (stereo partly drawn) (as salt: salt) (hydrate or solvate) [Example 15, 5-[4-(2-{[(2 S)-3-(1-Benzofuran-5-yloxy)-2-hydroxypropyl]amino}ethyl)anilino]-1,3-thiazolidine-2,4-dione]
72 to 74 °C | O=C1NC(=O)C(Nc2ccc(CCNC[C@H](O)COc3ccc(Oc4ccccc4)cc3)cc2)S1 (stereo partly drawn) (as salt: salt) [Example 1, 5-[4-(2-{[(2 S)-2-Hydroxy-3-(4-phenoxyphenoxy)propyl]amino}ethyl)anilino]-1,3-thiazolidine-2,4-dione]
55 °C | O=C1NC(=O)C(Nc2ccc(CCNC[C@H](O)c3ccccc3)cc2)S1 (stereo partly drawn) (as salt: salt) [Example 7, 5-[4-(2-{[(2 R)-2-Hydroxy-2-phenylethyl]amino}ethyl)anilino]-1,3-thiazolidine-2,4-dione]
172 °C | O=C1NC(=O)C(Nc2ccc(CCNC[C@@H](O)COc3cccc4[nH]c(=O)[nH]c34)cc2)S1 (stereo partly drawn) (as salt: salt) [Example 19, 5-{4-[2-({(2 R)-2-Hydroxy-3-[(2-oxo-2,3-di hydro-1 H-benzimidazol-4-yl)oxy]propyl}amino)ethyl]anilino}-1,3-thiazolidine-2,4-dione]
50 to 52 °C | O=C1NC(=O)C(N(Cc2ccc(Br)cc2)c2ccc(CCNC[C@H](O)COc3ccc(OCc4ccccc4)cc3)cc2)S1 (stereo partly drawn) (as salt: salt) [Example 25, 5-[(4-{2-[(2 S)-3-(4-Benzyloxy-phenoxy)-2-hydroxy-propylamino]-ethyl}-phenyl)-(4-bromo-benzyl)-amino]-thiazolidine-2,4-dione]
61 to 62 °C | O=C1NC(=O)C(Nc2ccc(CCNCC(O)COc3cccc4ccccc34)cc2)S1 (stereo not drawn) (hydrate or solvate) [Example 23, 5-(4-{2-[2-Hydroxy-3-(naphthalen-1-yloxy)-propylamino]-ethyl}-phenylamino)-thiazolidine-2,4-dione]
99 to 101 °C | O=C1NC(=O)C(N(CC#Cc2ccc(F)cc2)c2ccc(CCNC[C@H](O)COc3ccc(OCc4ccccc4)cc3)cc2)S1 (stereo partly drawn) (hydrate or solvate) [Example 27, 5-[(4-{2-[(2 S)-3-(4-Benzyloxy-phenoxy)-2-hydroxy-propylamino]-ethyl}-phenyl)-[3-(4-fluoro-phenyl)-prop-2-ynyl]-amino}-thiazolidine-2,4-dione]
